In patent US4537893A, “Octahydrothiazolo[4,5-g]quinolines and use as prolactin secretion inhibitors” (Eli Lilly and Company, priority 1984, dated 1985):

Columns and labels:
[1] = tested on: 6-hydroxydopamine-lesioned rats (nigroneostriatal-lesioned); assay: Turning behavior in 6-hydroxydopamine-lesioned rats (Table 2); assay type: in vivo, rat; conditions: for Average No. of turns per rat: first 15 minutes after end of latency period
Source text: In this test, nigroneostriatal-lesioned rats are employed, as prepared by the procedure of Ungerstedt and Arbuthnott, Brain Res, 24, 485 (1970). A compound having dopamine agonist activity causes the rats to turn in circles contralateral to the side of the lesion. After a latency period, which varies from compound to compound, the number of turns is counted over a 15-minute period.

prolactin secretion = assay: Inhibition of prolactin secretion in reserpine-treated male rats (Table 1); assay type: in vivo, rat (Sprague-Dawley); conditions: 50 mcg/kg i.p., 1 h after treatment
Procedure: As previously stated, the drugs of this invention as represented by formulas I and III above are D-2 dopamine agonists.
Adult male rats of the Sprague-Dawley strain weighing about 200 g. were housed in an air-conditioned room with controlled lighting (lights on 6 a.m.-8 p.m.) and fed lab chow and water ad libitum. Each rat received an intraperitoneal injection of 2.0 mg. of reserpine in aqueous suspension 18 hours before administration of the test drug. The purpose of the reserpine was to keep the rat prolactin levels uniformly elevated. The compound was dissolved in 10 percent ethanol, and injected intraperitoneally at doses of 0.017, 0.03, 0.17 and 0.3μ moles/kg. The compound was administered at each dose level to a group of 10 rats, and a control group of 10 intact males received an equivalent amount of 10 percent ethanol. One hour after treatment, all rats were killed by decapitation, and 150 μl aliquots of serum were assayed for prolactin.
The difference between the prolactin level of the treated rats and prolactin level of the control rats, divided by the prolactin level of the control rats, gives the percent inhibition of prolactin secretion attributable to the given dose. Inhibition percentages are given in Tables 1 and 2 below for compounds according to I or III above respectively. […]

| SMILES | % Rats exhibiting turning behaviour ([1]; dose 1000 mcg/kg) [%] | Average No. of turns per rat ([1]; dose 1000 mcg/kg) [turns per rat] | % Rats exhibiting turning behaviour ([1]; dose 20 mcg/kg) [%] | Average No. of turns per rat ([1]; dose 20 mcg/kg) [turns per rat] | % Rats exhibiting turning behaviour ([1]; dose 100 mcg/kg) [%] | Average No. of turns per rat ([1]; dose 100 mcg/kg) [turns per rat] | Percent Inhibition of Prolactin Secretion (prolactin secretion) [%] |
| --- | --- | --- | --- | --- | --- | --- | --- |
| CCCN1CCC[C@H]2Cc3nc(N4CCCC4)sc3C[C@@H]21 (racemic) [n-Pr, 1-pyrrolidinyl, FB, Trans-(±), Trans-(±)-2-(1-pyrrolidinyl)-5-n-propyl-4,4a,5,6,7,8,8a,9-octahydrothiazolo[4,5-g]quinoline] | 100 | 67 | – | – | – | – | – |
| CCCN1CCC[C@H]2Cc3nc(Br)sc3C[C@@H]21 (racemic) [n-Pr, Br, 2HCl, Trans-(±), Trans-(±)-2-bromo-5-n-propyl-4,4a,5,6,7,8,8a,9-octahydrothiazolo[4,5-g]quinoline] | 100 | 42 | – | – | – | – | – |
| CCCN1CCC[C@H]2Cc3ncsc3C[C@@H]21.Cl.Cl (racemic) [n-Pr, H, 2HCl, trans-(±), trans-(±)-5-n-propyl-4,4a,5,6,7,8,8a,9-octahydrothiazolo[4,5-g]quinoline dihydrochloride] | 100 | 100 | 25 | 16 | 100 | 44 | – |
| CCC[N+]1(C)CCCC2Cc3scnc3CC21.I.[I-] (racemic) [n-Pr, H, HI methiodide, trans-(±), trans-(±)-5-n-propyl-4,4a,5,6,7,8,8a,9-octahydrothiazolo[4,5-g]quinolinium methiodide hydroiodide] | – | – | – | – | – | – | 30 |
| CCCN1CCC[C@H]2Cc3nc(N(C)C)sc3C[C@@H]21 (racemic) [n-Pr, N(CH3)2, 2HCl, trans (±), trans-(±)-2-dimethylamino-5-n-propyl-4,4a,5,6,7,8,8a,9-octahydrothiazolo[4,5-g]quinoline] | 100 | 62 | – | – | – | – | – |
| Br.Br.CCCN1CCC[C@H]2Cc3nc(N)sc3C[C@@H]21 (racemic) [n-Pr, NH2, 2HBr, trans (±), trans-(±)-2-amino-5-n-propyl-4,4a,5,6,7,8,8a,9-octahydrothiazolo[4,5-g]quinoline dihydrobromide] | – | – | 0 | – | 78 | 51 | – |
| CCCN1CCC[C@H]2Cc3nc(NC)sc3C[C@@H]21.Cl.Cl (racemic) [n-Pr, NHCH3, 2HCl, trans (±), trans-(±)-2-methylamino-5-n-propyl-4,4a,5,6,7,8,8a,9-octahydrothiazolo[4,5-g]-quinoline dihydrochloride] | 100 | 100 | 75 | 27 | 100 | 80 | – |
| CCCN1CCC[C@H]2Cc3nc(NC(C)=O)sc3C[C@@H]21 (racemic) [n-Pr, NHCOCH3, FB, trans-(±), Trans-(±)-2-acetylamino-5-n-propyl-4,4a,5,6,7,8,8a,9-octahydrothiazolo[4,5-g]quinoline] | 100 | 91 | – | – | – | – | – |
| CCCN1CCC[C@@H]2Cc3nc(N)sc3C[C@H]21 [n-Pr, NH2, 2HCl, trans-(-), 4aR,8aR-2-amino-5-n-propyl-4,4a,5,6,7,8,8a,9-octahydrothiazolo[4,5-g]quinoline] | 100 | 109 | 100 | 37 | 80 | 102 | – |
